Converted amounts (≈) assume the structure as drawn. The source made the active and inactive calls. The rule behind the calls is not given here.

The text below walks through data of ChEMBL document CHEMBL4004847, “New tacrine-derived AChE/BuChE inhibitors: Synthesis and biological evaluation of 5-amino-2-phenyl-4H-pyrano[2,3-b]quinoline-3-carboxylates” (Eur J Med Chem, 2017).

The target of one assay is Cholinesterase (Homo sapiens, UniProt P06276).
The target of assay [1] is T1, Acetylcholinesterase (Electrophorus electricus, UniProt O42275).
T1 sequence (O42275 whole entry): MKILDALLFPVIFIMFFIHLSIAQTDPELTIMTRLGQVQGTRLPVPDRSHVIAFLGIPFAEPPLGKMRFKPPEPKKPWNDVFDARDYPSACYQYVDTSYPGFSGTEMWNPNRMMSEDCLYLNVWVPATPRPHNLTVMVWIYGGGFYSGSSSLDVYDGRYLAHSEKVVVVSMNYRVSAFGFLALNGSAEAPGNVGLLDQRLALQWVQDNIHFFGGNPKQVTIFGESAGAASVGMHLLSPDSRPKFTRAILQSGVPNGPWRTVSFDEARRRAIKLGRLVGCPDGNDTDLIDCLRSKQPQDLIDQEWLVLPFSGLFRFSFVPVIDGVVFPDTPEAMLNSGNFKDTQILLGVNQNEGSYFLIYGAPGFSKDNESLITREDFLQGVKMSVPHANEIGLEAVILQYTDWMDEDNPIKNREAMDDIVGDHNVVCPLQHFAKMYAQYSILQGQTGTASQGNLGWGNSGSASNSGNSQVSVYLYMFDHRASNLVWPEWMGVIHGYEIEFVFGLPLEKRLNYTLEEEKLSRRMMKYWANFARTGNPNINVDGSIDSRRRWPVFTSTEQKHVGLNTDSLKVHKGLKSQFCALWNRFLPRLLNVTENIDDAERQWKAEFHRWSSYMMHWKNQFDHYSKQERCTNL
Description: Inhibition of electric eel AChE using acetylthiocholine iodide as substrate preincubated for 5 mins followed by substrate addition measured for 1 min by Ellman's method
Assay [2] deals with PC-12. The assay can be described thus: Neuroprotective activity against H2O2-induced cell death in rat PC12 cells assessed as increase in cell viability at 100 uM preincubated for 3 hrs followed by H2O2 addition measured after 24 hrs by MTT assay. Type of assay: functional, cell-based. A general note: Tetrazolium assays rely on reduction of a dye to a coloured formazan, in cell work by metabolically active cells.

A further assay has as its system HepG2. The assay can be described thus: cells. The conditions noted are these: Homo sapiens, HepG2, 24 h.
Assay [3] concerns the target T1, Acetylcholinesterase. The assay can be described thus: Mixed-type inhibition of electric eel AChE preincubated for 5 mins followed by varying levels acetylthiocholine iodide substrate addition by Lineweaver-Burk plot analysis.
Assay [4] relates to PC-12. The assay can be described thus: Neuroprotective activity against H2O2-induced cell death in rat PC12 cells assessed as increase in cell viability at 10 uM preincubated for 3 hrs followed by H2O2 addition measured after 24 hrs by MTT assay. In kind it is functional, cell-based.

Sequence of Cholinesterase (P06276 whole entry): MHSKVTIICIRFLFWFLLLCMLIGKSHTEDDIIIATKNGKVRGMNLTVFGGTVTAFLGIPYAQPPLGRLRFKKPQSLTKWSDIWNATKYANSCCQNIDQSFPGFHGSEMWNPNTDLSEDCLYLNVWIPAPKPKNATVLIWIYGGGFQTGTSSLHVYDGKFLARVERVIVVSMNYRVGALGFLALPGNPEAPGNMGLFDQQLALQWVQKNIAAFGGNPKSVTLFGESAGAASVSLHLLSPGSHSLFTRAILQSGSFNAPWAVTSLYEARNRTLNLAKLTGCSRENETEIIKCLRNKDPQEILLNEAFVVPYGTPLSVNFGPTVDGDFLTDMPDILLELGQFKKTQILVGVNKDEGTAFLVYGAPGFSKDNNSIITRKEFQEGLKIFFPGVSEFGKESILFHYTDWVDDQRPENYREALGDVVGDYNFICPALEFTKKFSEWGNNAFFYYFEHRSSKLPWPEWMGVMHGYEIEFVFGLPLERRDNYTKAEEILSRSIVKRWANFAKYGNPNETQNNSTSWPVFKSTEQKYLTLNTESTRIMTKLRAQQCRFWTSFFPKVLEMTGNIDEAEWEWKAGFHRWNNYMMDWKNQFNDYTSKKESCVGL
Description for HepG2: Cytotoxicity against human HepG2 cells assessed as reduction in cell viability after 24 hrs by MTT assay

The term IC50 denotes the concentration that gives 50% inhibition. Consider `CCOC(=O)C1=C(c2ccccc2)Oc2nc3c(c(N)c2C1c1cccc(OC)c1)CCCC3` (stereo not drawn), for which the IC50 against Cholinesterase worked out at 7140 nM; at Acetylcholinesterase [1] it was 510 nM.
As to `CCOC(=O)C1=C(c2ccccc2)Oc2nc3c(c(N)c2C1c1ccccc1)CCCC3` (stereo not drawn), the IC50 against Cholinesterase came out at 5490 nM; on Acetylcholinesterase [1], 423 nM.
By Ki is commonly meant a measure of affinity in units of concentration, obtained from inhibition or displacement. As for `CCOC(=O)C1=C(c2ccccc2)Oc2nc3c(c(N)c2C1c1cccc(Br)c1)CCCC3` (stereo not drawn), the outcome in the assay on PC-12 [2] was Active. The IC50 was 72.8 µg/mL (≈ 144 µM) with HepG2, 1350 nM at Cholinesterase and 69 nM against Acetylcholinesterase [1]. Also, the affinity on Acetylcholinesterase [3], expressed as Ki, was 48.5 nM.
In the case of `CCOC(=O)C1=C(c2ccccc2)Oc2nc3c(c(N)c2C1c1ccccc1F)CCCC3` (stereo not drawn), the IC50 at Cholinesterase is 3630 nM; at Acetylcholinesterase [1] it was 370 nM.
For the molecule `CCOC(=O)C1=C(c2ccccc2)Oc2nc3c(c(N)c2C1c1ccc([N+](=O)[O-])cc1)CCCC3` (stereo not drawn), the IC50 came to 9910 nM at Cholinesterase and 583 nM on Acetylcholinesterase [1].
`CCOC(=O)C1=C(c2ccccc2)Oc2nc3c(c(N)c2C1c1cccc([N+](=O)[O-])c1)CCCC3` (stereo not drawn): the IC50 is more than 100 µg/mL in the assay with HepG2, 40900 nM against Cholinesterase and 2730 nM at Acetylcholinesterase [1].
On to `CCOC(=O)C1=C(c2ccccc2)Oc2nc3c(c(N)c2C1c1ccccc1Cl)CCCC3` (stereo not drawn), for which the outcome in the assay on PC-12 [2] and with PC-12 [4] was Active. In addition, the IC50 in the assay on HepG2 is more than 100 µg/mL; against Cholinesterase, 2140 nM; at Acetylcholinesterase [1] it was 153 nM.
For `CCOC(=O)C1=C(c2ccccc2)Oc2nc3c(c(N)c2C1c1ccc(C)cc1)CCCC3` (stereo not drawn), the IC50 turned out to be 54100 nM against Cholinesterase and 4160 nM on Acetylcholinesterase [1].
Take `CCOC(=O)C1=C(c2ccccc2)Oc2nc3c(c(N)c2C1c1ccc(Br)cc1)CCCC3` (stereo not drawn): the IC50 at Cholinesterase amounted to 74200 nM; at Acetylcholinesterase [1] it was 6220 nM.
On the same counts, the results for `CCOC(=O)C1=C(c2ccccc2)Oc2nc3c(c(N)c2C1c1ccc(OC)cc1)CCCC3` (stereo not drawn) are 5760 nM and 480 nM.
Taken in the same sequence, the figures for `CCOC(=O)C1=C(c2ccccc2)Oc2nc3c(c(N)c2C1c1cccc(F)c1)CCCC3` (stereo not drawn) were 11700 nM and 778 nM.
Regarding `CCOC(=O)C1=C(c2ccccc2)Oc2nc3c(c(N)c2C1c1ccccc1Br)CCCC3` (stereo not drawn), in the assay with PC-12 [2], the outcome was Active. In addition, the IC50 in the assay on HepG2 is more than 100 µg/mL; on Cholinesterase, 2760 nM; against Acetylcholinesterase [1], 118 nM.
For the molecule `CCOC(=O)C1=C(c2ccccc2)Oc2nc3c(c(N)c2C1c1ccc(F)cc1)CCCC3` (stereo not drawn), the IC50 on Cholinesterase worked out at 6100 nM; on Acetylcholinesterase [1] it was 404 nM.
As for `CCOC(=O)C1=C(c2ccccc2)Oc2nc3c(c(N)c2C1c1ccc(Cl)cc1Cl)CCCC3` (stereo not drawn), the IC50 against Cholinesterase is 22700 nM; on Acetylcholinesterase [1], 1620 nM.
As to `CCOC(=O)C1=C(c2ccccc2)Oc2nc3c(c(N)c2C1c1ccc(Cl)cc1)CCCC3` (stereo not drawn), the IC50 was found to be 17600 nM at Cholinesterase and 1100 nM on Acetylcholinesterase [1].
On to `CCOC(=O)C1=C(c2ccccc2)Oc2nc3c(c(N)c2C1c1cccc(Cl)c1)CCCC3` (stereo not drawn), for which the result in the assay with PC-12 [2] was Active. Further, the figures for the IC50 with HepG2, on Cholinesterase and against Acetylcholinesterase [1] were 50.4 µg/mL (≈ 109 µM), 3100 nM and 228 nM, respectively.
